According to US6407093B1, “1,4-Diazacycloheptane derivatives for the treatment of neurological disorders” (Astrazeneca UK Limited, priority 1998, dated 2002):
Where a name gives a salt, the structure may show the parent alone.

How the values were obtained:
[1] = target: T1, [3H]-emopamil binding site (Cavia porcellus, UniProt Q60490); experiment: (−)-3H-Emopamil binding to guinea pig liver membranes; conditions: 0.96 nM (−)-3H-emopamil, 60 minutes at 37° C.
T1 construct: Guinea pig liver membranes: 40 mg/mL original wet weight; from tissue; host or cells: guinea pig liver membranes
T1 sequence (Q60490 1-229): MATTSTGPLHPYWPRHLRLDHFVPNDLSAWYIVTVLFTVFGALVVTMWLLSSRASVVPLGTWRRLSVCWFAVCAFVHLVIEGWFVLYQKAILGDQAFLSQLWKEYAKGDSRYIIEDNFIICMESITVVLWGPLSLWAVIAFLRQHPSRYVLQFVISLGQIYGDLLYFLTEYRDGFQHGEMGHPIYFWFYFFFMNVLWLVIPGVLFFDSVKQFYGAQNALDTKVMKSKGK
Protocol: -^3H-Emopamil Binding to Guinea Pig Liver Membranes
The method of (−)-^3H-emopamil binding was a modification of Zech, C., Staudinger R., Mühlbacher, J. and Glossmann, H. Novel sites for phenylalkylamines: characterization of a sodium-sensitive drug receptor with (−)-^3H-emopamil. Eur. J. Pharm. 208: 119-130, 1991.
The reaction mixture contained:
Assay buffer: 10 mM Tris-HCl, 0.1 mM phenylmethylsulfonyl fluoride (PMSF), 0.2% bovine serum albumin (BSA), pH 7.4 at 4° C.
Radioligand: 0.96 nM (−)-^3H-emopamil (Amersham).
Guinea pig liver membranes: 40 mg/mL original wet weight.
This mixture was incubated for 60 minutes at 37° C. The incubation was terminated by filtering with a Brandel Cell Harvester over Whatman GF/C filters that had been soaked for at least 120 minutes in 0.3% polyethylenimine (PEI) and washed three times with 5 mL of wash buffer containing 10 mM Tris-HCl, 10 mM MgCl2, 0.2% BSA, pH 7.4 at 25° C. Specific binding was defined with 10 μM emopamil.
Guinea-pig Liver Membrane Preparation
Male guinea pigs were sacrificed by CO2 asphyxiation with dry ice. The livers were quickly excised and weighed and rinsed in membrane preparation buffer containing 10 mM Hepes, 1 mM Tris base-EDTA, 250 mM sucrose, pH 7.4. The livers were then minced, homogenized in 10 times volume with a motor driven Teflon-glass homogenizer with three strokes on ice. […]

[2] = target: L-type voltage sensitive calcium channels (3H-D888 binding site); experiment: 3H-D-888 binding to rat brain cortical membranes; conditions: 1 nM 3H-D888, rat cortical membranes, 60 minutes at 25° C.; in vitro selectivity test
Protocol: -^3H-D-888 Binding to Rat Brain Cortical Membranes
The method of ^3H-D-888 binding was a modification of Reynolds, I. J., Snowman, A. M. and Synder, S. H. (−)-[^3H] Desmethoxyverapamil labels multiple calcium channel modular receptors in brain and skeletal muscle membranes: differentiation by temperature and dihydropyridines. J. Pharmacol. Exp. Ther. 237: no.3, 731-738, 1986.
The assay tubes contained the following: assay buffer: 50 mM Hepes, 0.2% BSA, pH 7.4 radioligand: 1ηM ^3H-D888 (Amersham) rat cortical membranes: 6 mg/ml original wet weight
This mixture was incubated for 60 minutes at 25° C. The assay was terminated by filtering with a Brandel Cell Harvester over Whatman GF/C filters that had been soaked for at least 120 minutes in 0.3% polyethylenamine (PEI) and washed three times with 5 mL of wash buffer containing 20 mM Hepes, 20 mM MgCl2, pH 7.4. Specific binding was measured with 10 μM methoxyverapamil (D-600). This assay was used to determine in vitro selectivity of compounds vs. L-type voltage sensitive calcium channels, i.e high affinity for the ^3H-D888 binding site would show a lack of selectivity.
Rat Brain Cortical Membrane Preparation
Male Sprague-Dawley Rats were sacrificed by decapitation and the brains were quickly excised. The cerebellum and brain stem were removed and discarded; and the rest of the brain was rinsed in 320 mM sucrose. […]

Row | melting point [°C] | IC50 [1] [µM] | IC50 [2] [µM] | Structure (SMILES)
1 | 208 to 209 |  |  | CN1CCCN([C@H]2CCSc3ccccc32)CC1 (as salt: hydrochloride) [Example 5, S(+) 1-Methyl-4-(3,4-dihydro-2H-benzothiopyran-4yl)homopiperazine]
2 | 117 to 118 |  |  | CN1CCCN(C2CCSc3ccccc32)CC1 (centres unmarked) (as salt: maleate) [Example 1, 1 -Methyl-4-(3,4-dihydro-2H-benzothiopyran-4-yl)homopiperazine]
3 | 148.2 to 148.6 |  |  | CC(C)CN1CCCN(C2CCSc3ccccc32)CC1 (centres unmarked) (as salt: maleate) [Example 7, 1-Isobutyl-4-(3,4-dihydro-2H-benzothiopyran-4-yl)homopiperazine]
4 |  | 0.009 | ~15 | CN1CCCN([C@H]2CCSc3ccccc32)CC1 [Example 5, S(+) 1-Methyl-4-(3,4-dihydro-2H-benzothiopyran-4yl)homopiperazine]
